# From US9109001B2, “3′,5′-cyclic phosphoramidate prodrugs for HCV infection” (priority 2012, dated 2015)
# Like-named read-outs stand apart in the source and are kept apart here.
# What was measured:
# [1] = Stability in simulated intestinal fluid; type: in vitro ADME; details: 100 μM, 2 hours at 37° C.; percent of peak area at time zero
# Method: Stability in Simulated Gastric and Intestinal Fluids: Simulated gastric and intestinal fluids containing pepsin and pancreatin respectively were prepared according to the U.S. Pharmacopoeia USP291 procedure (www.pharmacopeia.cn/v29240/usp29nf24s0_ris1s126.html). Test compound (final concentration 100 μM) was incubated in duplicate in the appropriate fluid for 2 hours at 37° C. The samples were quenched with 200 μl cold acetonitrile, vortexed for 30 seconds and then centrifuged at 16,100 g for 10 min. The supernatants were analyzed by HPLC on a C-18 column with UV detection at 252 nm. The time 0 samples were prepared by adding SGF or SIF fluid to the quenching solvent followed by the test compound. Stability of the compound was determined by peak area the test compound after incubation and calculated as percent of the peak area observed at time zero.
# [2] = Cytotoxicity evaluation (CellTiter-Blue Cell Viability Assay); type: cell-based, human; details: human, Zluc cells, read-out: HCV Replicon CC50
# [3] = Stability in fresh human whole blood; type: in vitro ADME; details: 0.5 μM, percent unchanged test compound
# Method: (§1) Stability in Fresh Whole Blood: Stability of test compounds were determined in fresh human whole blood with K2EDTA as the anticoagulant (stored refrigerated at 2-8° C. and used within 7 days of receipt). The experiment was conducted with three replicates for each time point. Whole blood, pre-incubated at 37° C. for 10-15 minutes, was fortified with a solution of test compound for a final concentration of 0.5 μM and mixed for 30 sec. At intervals (0, 0.5, 1 and 2 hr), three 50-μL aliquots were combined with 200 μL (each) of an ice-cold solution of the internal standard (carbutamide 500 ng/mL in acetonitrile). The samples were vortexed for 30 sec and then centrifuged at 16,100 g for 5 min. The supernatant was analyzed by LC-MS/MS. The MS peak area ratio of the test compound versus the internal standard was calculated and percent unchanged test compound was calculated for each time point using this ratio.
# HCV genotype 1b replicon = assay: HCV Replicon Assay; type: cell-based; details: Zluc (Huh-7-derived) cells, HCV genotype 1b replicon, luciferase reporter, 72 hours, read-out: HCV Replicon EC50
# Method: Huh-7-derived cell line (Zluc) that harbors an HCV genotype 1b replicon and a luciferase reporter gene was grown in Dulbecco's Modified Eagle Medium (DMEM) supplemented with 10% fetal bovine serum, 2 mM GlutaMAX, 1% MEM nonessential amino acids, 100 IU/mL penicillin, 100 μg/mL streptomycin, and 0.5 mg/mL Geneticin® (G418). For dose response testing the cells were seeded in 96-well plates at 7.5×10^3 cells per well in a volume of 50 μL, and incubated at 37° C./5% CO2. Drug solutions were made up freshly in Huh-7 media as 2× stocks. Ten additional 5-fold dilutions were prepared from these stocks in DMEM without G418. At least three hours after Zluc cells were seeded, drug treatment was initiated by adding 50 μL of drug dilutions to the plates in duplicate. Final concentrations of drug ranged from 100 μM to […]. Cells were then incubated at 37° C./5% CO2. Alternatively, compounds were tested at two concentrations (1 μM and 10 μM). […] For this, media was removed from the plates via gentle tapping. Fifty microliters of ONE-glo luciferase assay reagent was added to each well. The plates were shaken gently for 3 min at room temperature and luminescence was measured on a Victor^3 V 1420 multilabel counter (Perkin Elmer) with a 1 second read time using a 700 nm cut-off filter. The EC50 values were calculated from dose response curves from the resulting best-fit equations determined by Microsoft Excel and XLfit 4.1 software. When screening at two fixed concentrations, the results were expressed as % inhibition at 1 μM and 10 μM.
# Stability in mouse blood = type: in vitro ADME; details: on ice, percent unchanged test compound
# Method: as §1
# The stability in mouse blood was determined on ice at 0, 0.5 and 1 hr as above.
# fresh human hepatocytes = assay: Release of active metabolite in fresh human hepatocytes; type: in vitro ADME; details: 10 μM
# Method: Assay for the Release of Active Metabolite in Primary Hepatocytes: Plates of fresh human and mouse hepatocytes were obtained on ice. The medium was removed and replaced with hepatocyte culture medium (William's E supplemented with penicillin-streptomycin, 1% L-glutamine, 1% insulin-transferrin-selenium and 0.1 μM Dexamethasone (Invitrogen) or with Invitro GRO HI medium complemented with Torpedo antibiotics (Celsis)). Cells were left overnight in an incubator at 37° C. to acclimatize to culture and the medium.
# Hepatocyte incubations were conducted at a final volume of 0.5 mL hepatocyte culture medium/well (0.8 million cells/well for human and 0.5 million cells/well for mouse; 12 well plate no overlay, collagen coat). Culture medium from overnight incubation of cells was removed and replaced with fresh medium, pre-warmed to 37° C., containing 10 μM of test compound from a stock solution in DMSO (final DMSO concentration was 0.1%). At each specific time point, incubation medium was removed and cell monolayers were carefully washed two times with ice-cold PBS. Following the last wash, all PBS was carefully removed and 1.0 mL of extraction solution (ice-cold 70% methanol/30% water) added. Cells were scraped off and suspended in the extraction solution, transferred to 2 mL polypropylene microfuge tubes and intracellular contents extracted overnight at −20° C.
# After the overnight treatment the cellular extracts were prepared by centrifugation at 16,000×g for 10 min to remove cellular debris. The remaining sample was then dried using a refrigerated centrivap concentrator. Dry extracts were reconstituted in 1000 μL of HPLC-grade water and centrifuged at 16,000×g for 10 min. Aliquots (100 μL each) of the supernatant were transferred into a 96 well plate and internal standard (4 ng/mL final concentration) was added as the internal standard (IS) for LC-MS/MS analysis.
# The incubation time points were 6, 24 and 48 hours for human hepatocytes and 1, 4, 8, 12 and 24 hours for mouse hepatocytes.
# [4] = Stability in human liver microsomes; type: in vitro ADME; details: 10 μM, 1.0 mg/mL protein, NADPH, 60 min; percent unchanged
# Method: Stability in Liver and Intestinal Subcellular Fractions: Stability of test compounds were determined in subcellular fractions (microsomes and S9) of human liver and intestine in duplicate for each matrix. Pooled liver and intestinal microsomal, intestinal and liver S9 proteins (1.0 mg/mL), suspended in incubation buffer (100 mM potassium phosphate, pH 7.4, 5 mM MgCl2, and 0.1 mM EDTA), were preincubated for 5 min at 37° C. with 10 μM of a test compound from a 10 mM stock solution in DMSO (final DMSO concentration was 0.1%); the reaction was initiated by the addition of NADPH (3 mM final concentration). At specific times (0 and 60 min), 0.1 mL samples were taken and the reaction terminated by the addition of 4 volumes of stop solution (acetonitrile with 500 ng/mL carbutamide as an internal standard). The samples were vortexed for 30 sec and then centrifuged at 16,000 g for 10 min. 100 μL of supernatants were transferred to 96 deep-well plates preloaded with 100 μL distilled water and analyzed after mixing by LC-MS/MS. The MS peak area ratio of the test compound versus the internal standard was calculated and percent unchanged test compound over 60 minutes was calculated using this ratio.
# Zluc cells = assay: Cytotoxicity evaluation (CellTiter-Blue Cell Viability Assay); type: cell-based, human; details: read-out: HCV Replicon CC50
SMILES,Stability SIF [1],CC50 [2] [nM],Stability WB_Human (37° C.; 2 hr) [3] [%],"EC50 (HCV genotype 1b replicon; Hepatitis C virus, 72 h) [nM]",Stability WB_Mouse (ice; 1 hr) (Stability in mouse blood) [%],FHH TP AUC (pmol · hr/mill cells) (fresh human hepatocytes),Stability HLM (1 hr) [4] [%],CC50 (Zluc cells) [nM],EC50 (HCV genotype 1b replicon) [nM]
"CCOc1nc(N)nc2c1ncn2[C@@H]1O[C@@H]2COP(=O)(NCCC(=O)OC(C)C)O[C@H]2[C@@]1(C)F (single isomer, unassigned) [Compound 2 Diastereomer 1]",98%,> 50000,98,250 to 1000,15,BLD^a,6.7,–,–
"CCOc1nc(N)nc2c1ncn2[C@@H]1O[C@@H]2COP(=O)(N[C@@H](C)COC(=O)C(C)C)O[C@H]2[C@@]1(C)F (single isomer, unassigned) [Compound 3 Diastereomer 2]",39%,> 50000,1,< 250,20,1426 pmol · hr/mill cells,0.3,–,–
"CCOc1nc(N)nc2c1ncn2[C@@H]1O[C@@H]2COP(=O)(N[C@@H](C)C(=O)OCC(C)C)O[C@H]2[C@@]1(C)F (single isomer, unassigned) [Compound 4 Diastereomer 1]",42%,> 50000,77,< 250,1,1759 pmol · hr/mill cells,–,–,–
"CCOc1nc(N)nc2c1ncn2[C@@H]1O[C@@H]2COP(=O)(N[C@@H](C)C(=O)OCC(C)C)O[C@H]2[C@@]1(C)F (single isomer, unassigned) [Compound 4 Diastereomer 2]",BLD^a,–,1,–,–,1575 pmol · hr/mill cells,–,> 50000,< 250
"CCOc1nc(N)nc2c1ncn2[C@@H]1O[C@@H]2COP(=O)(N[C@@H](C)C(=O)OC(C)C)O[C@H]2[C@@]1(C)O (single isomer, unassigned) [Compound 5 Diastereomer 1]",5%,> 50000,87,–,–,3615 pmol · hr/mill cells,–,–,250 to 1000
"CCOc1nc(N)nc2c1ncn2[C@@H]1O[C@@H]2COP(=O)(N[C@@H](C)C(=O)OC(C)C)O[C@H]2[C@@]1(C)O (single isomer, unassigned) [Compound 5 Diastereomer 2]",77%,–,83,–,–,2108 pmol · hr/mill cells,–,> 50000,1000 to 10000
"CCOC(=O)C(C)(C)NP1(=O)OC[C@H]2O[C@@H](n3cnc4c(OCC)nc(N)nc43)[C@](C)(F)[C@@H]2O1 (single isomer, unassigned) [Compound 7 Diastereomer 1]",91%,> 50000,96,250 to 1000,–,1148 pmol · hr/mill cells,–,–,–
"CCOC(=O)C(C)(C)NP1(=O)OC[C@H]2O[C@@H](n3cnc4c(OCC)nc(N)nc43)[C@](C)(F)[C@@H]2O1 (single isomer, unassigned) [Compound 7 Diastereomer 2]",102%,–,36,–,–,830 pmol · hr/mill cells,–,> 50000,< 250
"CCOc1nc(N)nc2c1ncn2[C@@H]1O[C@@H]2COP(=O)(N[C@@H](CC)COC(=O)C(C)C)O[C@H]2[C@@]1(C)F (single isomer, unassigned) [Compound 8 Diastereomer 1]",15%,> 50000,18,< 250,–,308 pmol · hr/mill cells,–,–,–
"CCOc1nc(N)nc2c1ncn2[C@@H]1O[C@@H]2COP(=O)(N[C@@H](CC)COC(=O)C(C)C)O[C@H]2[C@@]1(C)F (single isomer, unassigned) [Compound 8 Diastereomer 2]",69%,–,1,–,–,359 pmol · hr/mill cells,–,> 50000,< 250
"CCOc1nc(N)nc2c1ncn2[C@@H]1O[C@@H]2COP(=O)(N[C@@H](C)C(=O)OC3CCCC3)O[C@H]2[C@@]1(C)F (single isomer, unassigned) [Compound 10 Diastereomer 1]",2%,> 50000,5,< 250,–,1944 pmol · hr/mill cells,–,–,–
"CCOc1nc(N)nc2c1ncn2[C@@H]1O[C@@H]2COP(=O)(N[C@@H](C)C(=O)OC3CCCC3)O[C@H]2[C@@]1(C)F (single isomer, unassigned) [Compound 10 Diastereomer 2]",67%,–,80,–,–,2752 pmol · hr/mill cells,–,≤ 50000,< 250
CCOc1nc(N)nc2c1ncn2[C@@H]1O[C@@H]2COP(=O)(N[C@@H](C)COC(=O)C(C)C)O[C@H]2[C@@]1(C)F (stereo partly shown) [Compound 3],–,> 50000,–,< 250,–,–,–,–,–
